# Source: US20080269298A1, “Benzimidazol-1-YL-thiophene compounds for the treatment of cancer” (priority 2002, published 2008)
# pIC50: −log10 of the molar value.
# How the values were obtained:
# [1] = target: T1, PLK1 kinase domain (Homo sapiens, UniProt P53350); experiment: Assay for Inhibition of PLK1 (SPA enzyme activity); type: biochemical; details: 2 μM ATP, read-out: Ave pIC50 PLK Enzyme Inhibition (converted)
# T1 construct: made in house; host or cells: baculovirus-infected T. ni insect cells
# [2] = test system: lung (H460) tumor cell line; experiment: Methylene Blue Growth Inhibition Assay, H460; type: cell-based; details: Homo sapiens, NCI-H460, 72 h; Cell Line H460, 3 days; read-out: MeB IC50
# In short: (§1)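 Methylene blue dye retained by cells after a 3-day, 37° C compound incubation in DMEM/10% FBS (0.3% DMSO) served as the biomass readout at 620 nm. IC50 values were interpolated by nonlinear regression against vehicle wells.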
# [3] = test system: colon (HCT116) tumor cell line; experiment: Methylene Blue Growth Inhibition Assay, HCT116; type: cell-based; details: Homo sapiens, HCT-116, 72 h; Cell Line HCT116, 3 days; read-out: MeB IC50
# In short: as §1
# [4] = test system: Normal Human foreskin fibroblasts (HFF); experiment: Methylene Blue Growth Inhibition Assay, HFF; type: cell-based; details: 72 h, Cell Line HFF, 3 days, read-out: MeB IC50
# In short: as §1
# [5] = test system: breast tumor (MCF7) cell line; experiment: Methylene Blue Growth Inhibition Assay, MCF7; type: cell-based; details: Homo sapiens, 72 h; Cell Line MCF7, 3 days; read-out: MeB IC50
# In short: as §1
# [6] = test system: prostate (PC3) tumor cell line; experiment: Methylene Blue Growth Inhibition Assay, PC3; type: cell-based; details: Homo sapiens, 72 h; Cell Line PC3, 3 days; read-out: MeB IC50
# In short: as §1
# [7] = test system: colon (RKO) tumor cell line; experiment: Methylene Blue Growth Inhibition Assay, RKO; type: cell-based; details: Homo sapiens, 72 h, 3 days, read-out: MeB IC50
# In short: as §1
# [8] = test system: A549; experiment: Methylene Blue Growth Inhibition Assay, A549; type: cell-based; details: Homo sapiens; Cell Line A549; read-out: MeB IC50
# T1 sequence (P53350 21-346): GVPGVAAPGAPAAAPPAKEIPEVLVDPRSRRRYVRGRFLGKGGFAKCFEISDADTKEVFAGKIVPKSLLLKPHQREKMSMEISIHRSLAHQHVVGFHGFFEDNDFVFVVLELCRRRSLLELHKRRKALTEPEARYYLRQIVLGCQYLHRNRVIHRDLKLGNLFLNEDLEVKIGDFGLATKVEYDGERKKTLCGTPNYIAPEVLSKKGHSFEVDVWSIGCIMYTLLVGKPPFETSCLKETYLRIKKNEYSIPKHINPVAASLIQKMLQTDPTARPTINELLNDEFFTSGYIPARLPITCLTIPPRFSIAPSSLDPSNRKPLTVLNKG
IC50 [1] [nM],pIC50 [2],pIC50 [3],pIC50 [5],pIC50 [6],pIC50 [7],pIC50 [8],SMILES,pIC50 [4]
< 100,5.00 to 6.00,5.00 to 6.00,5.00 to 6.00,< 5.00,> 6.00,5.00 to 6.00,"COc1cc2ncn(-c3cc(OCc4ccncc4Br)c(C(N)=O)s3)c2cc1OC [Example 120, 3-[(3-Bromopyridin-4-yl)methoxy]-5-(5,6-dimethoxy-1H-benzimidazol-1-yl)thiophene-2-carboxamide]",< 5.00
< 100,> 6.00,> 6.00,> 6.00,5.00 to 6.00,> 6.00,> 6.00,COc1cc2ncn(-c3cc(OC(C)c4ccccc4C(F)(F)F)c(C(N)=O)s3)c2cc1OC (centres unmarked) [Example 127],5.00 to 6.00
< 100,> 6.00,> 6.00,> 6.00,5.00 to 6.00,> 6.00,> 6.00,"COc1cc2ncn(-c3cc(OCc4cc5c(cc4Cl)OCO5)c(C(N)=O)s3)c2cc1OC [Example 91, 3-[(6-Chloro-1,3-dibenzodioxol-5-yl)methoxy]-5-(5,6-dimethoxy-1H-benzimidazol-1-yl)thiophene-2-carboxamide]",< 5.00
< 100,5.00 to 6.00,5.00 to 6.00,5.00 to 6.00,< 5.00,5.00 to 6.00,5.00 to 6.00,CS(=O)(=O)c1ccc2ncn(-c3cc(OCc4ccccc4C(F)(F)F)c(C(N)=O)s3)c2c1 [Example 121],< 5.00
< 100,> 6.00,5.00 to 6.00,> 6.00,< 5.00,> 6.00,> 6.00,"COc1cc2ncn(-c3cc(OS(=O)(=O)c4ccccc4C)c(C(N)=O)s3)c2cc1OC [Example 154, 2-(Aminocarbonyl)-5-(5,6-dimethoxy-1H-benzimidazol-1-yl)thien-3-yl-2-methylbenzenesulfonate]",< 5.00
< 100,5.00 to 6.00,> 6.00,> 6.00,5.00 to 6.00,> 6.00,5.00 to 6.00,"NC(=O)c1sc(-n2cnc3ccc(OCC4CCNCC4)cc32)cc1OCc1ccccc1C(F)(F)F [Example 143, 5-{6-[(4-Piperidinylmethyl)oxy]-1H-benzimidazol-1-yl}-3-({[2-(trifluoromethyl)phenyl]-methyl}oxy)-2-thiophenecarboxamide]",5.00 to 6.00
< 100,5.00 to 6.00,5.00 to 6.00,5.00 to 6.00,< 5.00,> 6.00,5.00 to 6.00,"COc1cc2ncn(-c3cc(OCc4cccnc4F)c(C(N)=O)s3)c2cc1OC [Example 102, 5-(5,6-Dimethoxy-1H-benzimidazol-1-yl)-3-[(2-fluoropyridin-3-yl)methoxy]thiophene-2-carboxamide]",< 5.00
< 100,> 6.00,> 6.00,> 6.00,< 5.00,> 6.00,> 6.00,"COc1cc2ncn(-c3cc(OCc4ccccc4OC(F)F)c(C(N)=O)s3)c2cc1OC [Example 108, 3-{[2-(Difluoromethoxy)benzyl]oxy}-5-(5,6-dimethoxy-1H-benzimidazol-1-yl)thiophene-2-carboxamide]",< 5.00
< 100,5.00 to 6.00,5.00 to 6.00,5.00 to 6.00,< 5.00,5.00 to 6.00,5.00 to 6.00,"COc1cc2c(cc1OCCCN1CCCC1=O)ncn2-c1cc(OCc2ccccc2C(F)(F)F)c(C(N)=O)s1 [Example 134, 5-(6-(Methyloxy)-5-{[3-(2-oxo-1-pyrrolidinyl)propyl]oxy}-1H-benzimidazol-1-yl)-3-({[2-(trifluoromethyl)phenyl]methyl}oxy)-2-thiophenecarboxamide]",< 5.00
< 100,< 5.00,< 5.00,< 5.00,< 5.00,< 5.00,,"Cc1ccccc1COc1cc(-n2cnc3cc(Cl)ccc32)sc1C(=O)O [Example 34, 5-(5-Chloro-1H-benzimidazol-1-yl)-3-[(2-methylbenzyl)oxy]thiophene-2-carboxylic acid]",< 5.00
< 100,> 6.00,5.00 to 6.00,5.00 to 6.00,5.00 to 6.00,> 6.00,> 6.00,"COc1cc2ncn(-c3cc(OCc4ccccc4OC(F)(F)F)c(C(N)=O)s3)c2cc1OC [Example 107, 5-(5,6-Dimethoxy-1H-benzimidazol-1-yl)-3-{[2-(trifluoromethoxy)benzyl]oxy}thiophene-2-carboxamide]",5.00 to 6.00
< 100,< 5.00,< 5.00,< 5.00,< 5.00,< 5.00,,"O=C(O)c1sc(-n2cnc3cc(Cl)c(Cl)cc32)cc1OCc1cccs1 [Example 80, 5-(5,6-Dichloro-1H-benzimidazol-1-yl)-3-(thien-2-ylmethoxy)-thiophene-2-carboxylic acid]",< 5.00
< 100,< 5.00,< 5.00,< 5.00,< 5.00,< 5.00,,"Cc1ccccc1COc1cc(-n2cnc3ccc(Cl)cc32)sc1C(=O)O [Example 35, 5-(6-Chloro-1H-benzimidazol-1-yl)-3-[(2-methylbenzyl)oxy]thiophene-2-carboxylic acid]",< 5.00
100 to 10000,5.00 to 6.00,5.00 to 6.00,5.00 to 6.00,< 5.00,5.00 to 6.00,,"CN(c1ccccc1)c1cc(-n2cnc3ccccc32)sc1C(N)=O [Example 131, 5-(1H-Benzimidazol-1-yl)-3-[methyl(phenyl)amino]thiophene-2-carboxamide]",< 5.00
< 100,> 6.00,> 6.00,> 6.00,< 5.00,> 6.00,,"COc1cc2ncn(-c3cc(OCc4ccccc4Br)c(C(N)=O)s3)c2cc1OC [Example 65, 3-[(2-Bromobenzyl)oxy]-5-(5,6-dimethoxy-1H-benzimidazol-1-yl)thiophene-2-carboxamide]",< 5.00
< 100,> 6.00,> 6.00,> 6.00,5.00 to 6.00,> 6.00,,"COc1cc2ncn(-c3cc(OCc4ccccc4[N+](=O)[O-])c(C(N)=O)s3)c2cc1OC [Example 92, 5-(5,6-Dimethoxy-1H-benzimidazol-1-yl)-3-[(2-nitrobenzyl)oxy]thiophene-2-carboxamide]",5.00 to 6.00
< 100,> 6.00,5.00 to 6.00,5.00 to 6.00,< 5.00,5.00 to 6.00,,"COc1cc2ncn(-c3cc(OCc4c(Cl)cccc4Cl)c(C(N)=O)s3)c2cc1OC [Example 64, 3-[(2,6-Dichlorobenzyl)oxy]-5-(5,6-dimethoxy-1H-benzimidazol-1-yl)thiophene-2-carboxamide]",< 5.00
< 100,5.00 to 6.00,5.00 to 6.00,5.00 to 6.00,5.00 to 6.00,> 6.00,5.00 to 6.00,"COc1cc2ncn(-c3cc(OCc4cccnc4Cl)c(C(N)=O)s3)c2cc1OC [Example 101, 3-[(2-Chloropyridin-3-yl)methoxy]-5-(5,6-dimethoxy-1H-benzimidazol-1-yl)thiophene-2-carboxamide]",< 5.00
< 100,5.00 to 6.00,> 6.00,5.00 to 6.00,5.00 to 6.00,5.00 to 6.00,,"COc1cc2ncn(-c3cc(OCc4ccccc4C(F)(F)F)c(C(N)=O)s3)c2cc1OCCN1CCOCC1 [Example 137, 5-(5-(Methyloxy)-6-{[2-(4-morpholinyl)ethyl]oxy}-1H-benzimidazol-1-yl)-3-({[2-(trifluoromethyl)phenyl]methyl}oxy)-2-thiophenecarboxamide]",< 5.00
< 100,5.00 to 6.00,5.00 to 6.00,5.00 to 6.00,< 5.00,5.00 to 6.00,,"C#Cc1ccccc1COc1cc(-n2cnc3cc(OC)c(OC)cc32)sc1C(N)=O [Example 106, 5-(5,6-Dimethoxy-1H-benzimidazol-1-yl)-3-[(2-ethynylbenzyl)oxy]thiophene-2-carboxamide]",< 5.00

SMILES,IC50 [1] [nM],pIC50 [2],pIC50 [3],pIC50 [5],pIC50 [6],pIC50 [7],pIC50 [8],pIC50 [4]
"COc1cc2ncn(-c3cc(OC(C)c4ccccc4Cl)c(C(N)=O)s3)c2cc1OC (centres unmarked) [Example 126, 3-[1-(2-Chlorophenyl)ethoxy]-5-(5,6-dimethoxy-1H-benzimidazol-1-yl)thiophene-2-carboxamide]",,> 6.00,> 6.00,5.00 to 6.00,5.00 to 6.00,> 6.00,> 6.00,> 6.00
